Experimental data from patent US12209145B2, “PCSK9 antagonist compounds” (Merck Sharp & Dohme LLC, priority 2018, dated 2025).

Assays:
Assay type in all cases: binding
PCSK9 [1] = molecular target: T1, PCSK9 (Homo sapiens, UniProt Q8NBP7); assay: PCSK9 Alexa FRET Plus TR-FRET assay (displacement of AlexaFluor647 tagged cyclic peptide Reagent B); conditions: Ki Plus, 0.5 nM biotinylated PCSK9, 960 nM AF cyclic peptide Reagent B; Ki calculated from IC50 and KD of AF peptide
T1 construct: Biotinylated PCSK9 was obtained commercially; purchased
T1 sequence (Q8NBP7 153-692): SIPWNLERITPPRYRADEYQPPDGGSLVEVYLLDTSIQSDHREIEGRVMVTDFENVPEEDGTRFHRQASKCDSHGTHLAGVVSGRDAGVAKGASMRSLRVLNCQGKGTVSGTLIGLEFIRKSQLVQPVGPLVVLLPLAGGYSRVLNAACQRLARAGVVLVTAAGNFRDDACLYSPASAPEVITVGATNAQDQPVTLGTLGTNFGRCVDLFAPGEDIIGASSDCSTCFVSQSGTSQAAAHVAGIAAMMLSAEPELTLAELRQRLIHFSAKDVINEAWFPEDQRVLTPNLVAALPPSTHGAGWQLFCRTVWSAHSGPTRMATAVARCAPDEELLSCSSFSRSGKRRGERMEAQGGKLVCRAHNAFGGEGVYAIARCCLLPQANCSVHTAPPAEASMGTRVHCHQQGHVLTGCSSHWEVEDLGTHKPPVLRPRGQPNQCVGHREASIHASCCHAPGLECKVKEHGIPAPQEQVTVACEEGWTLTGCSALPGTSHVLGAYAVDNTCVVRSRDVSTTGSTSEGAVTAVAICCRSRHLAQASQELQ
How it was run: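 TR-FRET displacement using 0.5 nM biotinylated PCSK9 with 1.25 nM streptavidin-Eu and 960 nM AlexaFluor-tagged cyclic peptide in pH 7.4 HEPES with CaCl2, at least 2 h at RT. IC50 from sigmoidal fit, converted to Ki using the peptide KD; falling Eu counts flag false positives.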

PCSK9 [2] = molecular target: T1, PCSK9; assay: PCSK9 Alexa FRET Ultra TR-FRET assay (displacement of AlexaFluor647 tagged cyclic peptide); conditions: Ki Ultra, 0.5 nM biotinylated PCSK9, 960 nM AF cyclic peptide; Ki calculated from IC50 and KD of AF peptide
How it was run: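 Biotinylated PCSK9 (0.5 nM final) with 1.25 nM Strep-Eu and 960 nM AlexaFluor-tagged cyclic peptide in HEPES pH 7.4, NaCl, CaCl2, BSA, P20; ≥2 h at room temperature. IC50 from sigmoidal fit, converted to Ki (nM) using peptide KD; falling Eu counts flag false positives.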

PCSK9 [3] = molecular target: T1, PCSK9; assay: PCSK9 Alexa FRET Standard TR-FRET assay (displacement of AlexaFluor647 tagged cyclic peptide Reagent A)
Experimental: The following is a description of the assays used to determine activity of compounds of the invention, and any comparator compounds reported, toward PCSK9 antagonism. Biotinylated PCSK9 was obtained commercially.
Alexa FRET Standard TR-FRET
A solution containing 1 nM biotinylated PCSK9+2.5 nM Lance Streptavidin Europium (Strep-Eu) is made in 50 mM HEPES pH 7.4, 0.15 M NaCl, 5 mM CaCl2, 0.01% BSA, and 0.01% Surfactant P20. A separate solution containing 40 nM of the AlexaFluor tagged cyclic peptide is made in the same buffer system. An Echo is used to transfer 0.750 ul of compound to an assay plate followed by the addition of 15 ul of PCSK9+Stept-Eu and 15 ul of AF peptide. The final assay volume is 30.750 ul containing 0.5 nM PCSK9, 1.25 nM Strep-Eu, and 20 nM AF cyclic peptide. The reaction is incubated at room temperature for at least two hours prior to fluorescence measurements using an Envision Multilabel Reader. […] values are determined by fitting data to a sigmoidal dose-response curve using nonlinear regression. Ki is then calculated from the IC50 and the KD of AF cyclic peptide. Counts (B-counts) of the europium-labeled PCSK9 are followed to observe if compounds are adversely PCSK9. A fall off of the B-counts likely indicates a false positive of inhibition. Data from this procedure is reported as “A=‘numerical value’ (nanomolar)”
Activity data obtained by one or both of the above-described procedures is reported for selected example compounds of the invention in the following format: Example No.: A (standard TR Fret)=‘numerical value’; P (Alexa Fret plus standard TR Fret)=‘numerical value’/, note that all values reported are nanomolar.

Row | SMILES | Ki (PCSK9 [1]) [pM] | Ki (PCSK9 [2]) [pM] | Ki (PCSK9 [3]) [pM]
1 | COc1ccc(C[C@@H]2NC(=O)[C@H]([C@@H](C)O)NC(=O)[C@@H]3[C@@H]4CCN3C(=O)[C@@H]3Cc5cn(c6ccc(F)cc56)CCCCCCN(Cc5ccc(cc5)CCNC(=O)[C@]5(C)CCCN5C2=O)C(=O)CCC(=O)N[C@@H](C)C(=O)N[C@H](CNC(=O)CCOCCOCCCN(C)C)C(=O)N[C@@H](Cc2cccc(c2)CNC(=O)CO4)C(=O)N3)cc1 [Ex-50] | 10.5 | 4.43 | < 1260
2 | COc1ccc(C[C@@H]2NC(=O)[C@H]([C@@H](C)O)NC(=O)[C@@H]3[C@@H]4CCN3C(=O)[C@@H]3Cc5cn(c6ccc(F)cc56)C/C=C/CCCN(Cc5ccc(cc5)CCNC(=O)[C@]5(C)CCCN5C2=O)C(=O)CCC(=O)N[C@@H](C)C(=O)N[C@H](CN)C(=O)N[C@@H](Cc2cccc(c2)CNC(=O)CO4)C(=O)N3)cc1 [Ex-51] | < 5.58 | 5.97 | < 1260
3 | COc1ccc(C[C@@H]2NC(=O)[C@H]([C@@H](C)O)NC(=O)[C@@H]3[C@@H]4CCN3C(=O)[C@@H]3Cc5cn(c6ccc(F)cc56)C/C=C/CCCN(Cc5ccc(cc5)CCNC(=O)[C@]5(C)CCCN5C2=O)C(=O)CCC(=O)N[C@@H](C)C(=O)N[C@H](CNC(=O)CCOCCOCC[N+](C)(C)C)C(=O)N[C@@H](Cc2cccc(c2)CNC(=O)CO4)C(=O)N3)cc1 [Ex-52] | < 5.58 | 3.59 | < 1260
4 | COc1ccc(C[C@@H]2NC(=O)[C@H]([C@@H](C)O)NC(=O)[C@@H]3[C@@H]4CCN3C(=O)[C@@H]3Cc5cn(c6ccc(F)cc56)C/C=C/COc5cc(ccc5CNC(=O)CCC(=O)N[C@@H](C)C(=O)N[C@H](CN)C(=O)N[C@@H](Cc5cccc(c5)CNC(=O)CO4)C(=O)N3)CCNC(=O)[C@]3(C)CCCN3C2=O)cc1 [Ex-53] | 96.3 | 215 | < 1260
5 | COc1ccc(C[C@@H]2NC(=O)[C@H]([C@@H](C)O)NC(=O)[C@@H]3[C@@H]4CCN3C(=O)[C@@H]3Cc5cn(c6ccc(F)cc56)CCCCOc5cc(ccc5CNC(=O)CCC(=O)N[C@@H](C)C(=O)N[C@H](CN)C(=O)N[C@@H](Cc5cccc(c5)CNC(=O)CO4)C(=O)N3)CCNC(=O)[C@]3(C)CCCN3C2=O)cc1 [Ex-54] | 367 | 484 | < 1260
6 | COc1ccc(C[C@@H]2NC(=O)[C@H]([C@@H](C)O)NC(=O)[C@@H]3[C@@H]4CCN3C(=O)[C@@H]3Cc5cn(c6ccc(F)cc56)CCCCOc5cc(ccc5CNC(=O)CCC(=O)N[C@@H](C)C(=O)N[C@H](CNC(=O)CCOCCOCC[N+](C)(C)C)C(=O)N[C@@H](Cc5cccc(c5)CNC(=O)CO4)C(=O)N3)CCNC(=O)[C@]3(C)CCCN3C2=O)cc1 [Ex-55] | 72.4 | 238 | < 1260
7 | COc1ccc(C[C@@H]2NC(=O)[C@H]([C@@H](C)O)NC(=O)[C@@H]3[C@@H]4CCN3C(=O)[C@@H]3Cc5cn(c6ccc(F)cc56)CCCCCCN(Cc5ccc(cc5)CCNC(=O)[C@]5(C)CCCN5C2=O)C(=O)CCC(=O)N[C@@H](C)C(=O)N[C@H](CNC(=O)Cc2cccc(OCCC[N+](C)(C)C)c2)C(=O)N[C@@H](Cc2cccc(c2)CNC(=O)CO4)C(=O)N3)cc1 [Ex-56] | 22.4 | 4.81 | < 1260
8 | COCCC[N+](C)(C)CCCCCC(=O)NC[C@H]1NC(=O)[C@H](C)NC(=O)CCC(=O)N2CCCCCCn3cc(c4cc(F)ccc43)C[C@@H]3NC(=O)[C@H](Cc4cccc(c4)CNC(=O)CO[C@H]4CCN(C3=O)[C@@H]4C(=O)N[C@@H]([C@@H](C)O)C(=O)N[C@@H](Cc3ccc(OC)cc3)C(=O)N3CCC[C@@]3(C)C(=O)NCCc3ccc(cc3)C2)NC1=O [Ex-57] | < 5.58 | 1.62 | < 1260
9 | COCC[N+](C)(C)CCCCCC(=O)NC[C@H]1NC(=O)[C@H](C)NC(=O)CCC(=O)N2CCCCCCn3cc(c4cc(F)ccc43)C[C@@H]3NC(=O)[C@H](Cc4cccc(c4)CNC(=O)CO[C@H]4CCN(C3=O)[C@@H]4C(=O)N[C@@H]([C@@H](C)O)C(=O)N[C@@H](Cc3ccc(OC)cc3)C(=O)N3CCC[C@@]3(C)C(=O)NCCc3ccc(cc3)C2)NC1=O [Ex-58] | 7.73 | 1.96 | < 1260
